How the values were obtained:
Assay type in all cases: cell-based
Details in all cases: Homo sapiens
[1] = tested on: CEACAM5-positive SK-CO-1 cells; assay: Cell viability assay (Cell Titer-Glo, six days) on SK-CO-1
Protocol: (§1) Cytotoxicity effects of the ADC on the cancer cell lines were measured by cell viability assays. Cells were seeded in a volume of 90 μL in 96-well plates the day before treatment. Test compounds (ADCs or free payloads) were formulated at 10-fold the starting concentration in cell culture medium. Test compounds were serial diluted (1:4) and 10 μL of each dilution was added to the cells in triplicates. Plates were cultured at 37° C. in a CO2 incubator for six days. For cell viability measurement, Cell Titer-Glo® reagent (Promega™ Corp, Madison, WI) was added to each well, and plates processed according to the manufacturer's instructions. Luminescence signals were measured using a Varioskan plate reader (Thermo Fisher). Luminescence readings were converted to % viability relative to untreated cells. Data was fitted with non-linear regression analysis, using log (inhibitor) vs. response, variable slope, 4-parameter fit equation using Genedata Screener or GraphPad Prism. Data is shown as % relative cell viability vs. molar compound concentration, error bars indicating standard deviation (SD) of duplicates or triplicates. Geometric mean values of IC50s derived from multiple experiments were calculated.
(§2) A fold reduction in IC50, defined as a S[…], was calculated by dividing the IC50 against CEACAM5-negative MDA-MB-231 cells by the IC50 against each CEACAM5-positive cell line (see Table 6). […]

[2] = tested on: CEACAM5-positive MKN-45 cells; assay: Cell viability assay (Cell Titer-Glo, six days) on MKN-45
Protocol: as §1, §2

[3] = tested on: CEACAM5-negative MDA-MB-231 cells; assay: Cell viability assay (Cell Titer-Glo, six days) on MDA-MB-231
Protocol: as §1, §2

[4] = tested on: CEACAM5-positive LS174T cells; assay: Cell viability assay (Cell Titer-Glo, six days) on LS174T
Protocol: as §1

[5] = tested on: CEACAM5-positive SNU-16 cells; assay: Cell viability assay (Cell Titer-Glo, six days) on SNU-16
Protocol: as §1, §2

**Q.** How did the IC50 ([1]; 144 h, read-out: SK-CO-1 IC50 [M], n ≥ 2, SK-CO-1, CEACAM5 positive, six days, geometric mean) turn out when `CC[C@@]1(O)C(=O)OCc2c1cc1n(c2=O)Cc2c-1nc1cc(F)c(C)c3c1c2[C@@H](N)CC3` [Payload, (1S,9S)-1-Amino-9-ethyl-5-fluoro-1,2,3,9,12,15-hexahydro-9-hydroxy-4-methyl-10H, 13H-benzo (de) pyrano (3′,4′: 6,7) indolizino (1,2-b) quinoline-10,13-dione] was run?
**A.** 2.2e-10 M

**Q.** And the Emax ([1]; SK-CO-1, at the highest tested compound concentration, read-out: Maximal effect compared to untreated controls, SK-CO-1)?
**A.** -97%

**Q.** What about the IC50 ([2]; 144 h, read-out: MKN-45 IC50 [M], n ≥ 2, MKN-45, CEACAM5 positive, six days, geometric mean) of the same compound?
**A.** 6.6e-10 M

**Q.** What about the Emax ([2]; MKN-45, at the highest tested compound concentration, read-out: Maximal effect compared to untreated controls, MKN-45) of the same compound?
**A.** -100%

**Q.** What about the IC50 ([3]; 144 h, read-out: MDA-MB-231 IC50 [M], n ≥ 3, MDA-MB-231, CEACAM5 negative, six days, n/a = below −50% effect cut-off) of the same compound?
**A.** 6e-10 M

**Q.** And the Emax ([3]; MDA-MB-231, at the highest tested compound concentration, read-out: Maximal effect compared to untreated controls, MDA-MB-231)?
**A.** -91%

**Q.** What about the IC50 ([4]; 144 h, read-out: LS174T IC50 [M], n ≥ 2, CEACAM5 positive, six days, geometric mean) of the same compound?
**A.** 3e-10 M

**Q.** What about the Emax ([4]; at the highest tested compound concentration, read-out: Maximal effect compared to untreated controls, LS174T) of the same compound?
**A.** -91%

**Q.** And the IC50 ([5]; 144 h, read-out: SNU-16 IC50 [M], n ≥ 2, SNU-16, CEACAM5 positive, six days, geometric mean)?
**A.** 2.9e-10 M

**Q.** What about the Emax ([5]; SNU-16, at the highest tested compound concentration, read-out: Maximal effect compared to untreated controls, SNU-16) of the same compound?
**A.** -99%
